Measured values as given in PubChem BioAssay (NCI).
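Each compound was tested at five concentrations against cells in 96-well plates for 48 hours. GI50 is the concentration that inhibits growth by half. Definition used: TGI = concentration required for complete inhibition of growth.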

Assays:
Experiment in all cases: NCI anticancer screen, dose series, 48 h
UACC-62 melanoma = tested on: UACC-62 melanoma
HOP-92 NSCLC = tested on: HOP-92 NSCLC
NCI-H460 lung = tested on: NCI-H460 lung
MDA-MB-231 breast = tested on: MDA-MB-231 breast
HL-60(TB) leukemia = tested on: HL-60(TB) leukemia
HCC-2998 colon = tested on: HCC-2998 colon
SF-539 CNS = tested on: SF-539 CNS
U251 CNS = tested on: U251 CNS
MDA-MB-435 = tested on: MDA-MB-435
IGROV1 ovarian = tested on: IGROV1 ovarian

SMILES | GI50 (UACC-62 melanoma) | TGI (UACC-62 melanoma) | GI50 (HOP-92 NSCLC) | TGI (HOP-92 NSCLC) | GI50 (NCI-H460 lung) | TGI (NCI-H460 lung) | GI50 (MDA-MB-231 breast) | TGI (MDA-MB-231 breast) | GI50 (HL-60(TB) leukemia) | TGI (HL-60(TB) leukemia) | GI50 (HCC-2998 colon) | TGI (HCC-2998 colon) | GI50 (SF-539 CNS) | TGI (SF-539 CNS) | GI50 (U251 CNS) | TGI (U251 CNS) | GI50 (MDA-MB-435) | TGI (MDA-MB-435) | GI50 (IGROV1 ovarian) | TGI (IGROV1 ovarian)
CCN1CCN(Cc2ccc(NC(=O)Nc3nc4ccc(Oc5ccnc(C(=O)NC)c5)cc4s3)cc2C(F)(F)F)CC1 | 1.7 µM | 3.28 µM | 1.94 µM | 3.91 µM | 1.91 µM | 3.63 µM | 1.74 µM | 3.4 µM | 2.01 µM | 4.11 µM | 2.05 µM | 3.67 µM | 1.54 µM | 2.97 µM | 1.85 µM | 3.45 µM | 1.44 µM | 2.86 µM | 1.76 µM | 3.62 µM
CN1CCN(Cc2ccc(NC(=O)c3cncc(C#Cc4cnc(N)cc4C#N)c3)cc2C(F)(F)F)CC1 | 0.877 µM | 3.92 µM | 0.906 µM | 4.44 µM | 2.66 µM | 12.7 µM | 1.15 µM | 3.1 µM | 0.768 µM | 3.58 µM | 3.9 µM | 15.4 µM | 0.959 µM | 3.55 µM | 4.45 µM | 19.1 µM | 1.98 µM | 11.7 µM | 1.16 µM | 5.62 µM
COc1cccc(CN(C)c2ccc(CO)c(Cl)c2)c1 | 0.19 µM | 1.63 µM | 6.97 µM | 56.9 µM | 0.97 µM | 21 µM | 31 µM | > 100 µM | 26 µM | > 87.1 µM | 16.9 µM | 74.8 µM | 48 µM | > 100 µM | 3.32 µM | > 64.1 µM | 19.7 µM | 66.2 µM | 0.216 µM | 2.6 µM
CN(Cc1ccc(C(F)(F)F)cc1)CC(O)C(=O)Nc1ccc(Cl)cc1 (centres undefined) | 1.64 µM | 3.13 µM | 1.08 µM | 2.37 µM | 1.59 µM | 3.21 µM | 1.34 µM | 2.73 µM | 1.37 µM | 3.09 µM | 1.66 µM | 3.08 µM | 1.73 µM | 3.24 µM | 1.73 µM | 3.16 µM | 1.52 µM | 3 µM | 1.46 µM | 3.04 µM
C=C1C(=O)O[C@H]2[C@H]1CC/C(COC(=O)NCc1ccc(OC)cc1)=C\CC[C@@]1(C)O[C@@H]21 | 1.59 µM | 3.16 µM | 0.559 µM | 1.83 µM | 3.16 µM | 18.2 µM | 1.17 µM | 3.96 µM | 0.813 µM | 2.1 µM | 1.75 µM | 6.67 µM | 0.973 µM | 3.65 µM | 2.65 µM | 16.2 µM | 0.805 µM | 2.62 µM | 0.783 µM | 2.79 µM
Cc1ccc2nc(-c3ccc(OCC(=O)N=Nc4c(O)[nH]c5ccccc45)cc3)[nH]c2c1 | 4.38 µM | 16.8 µM | 2.79 µM | 18.2 µM | 2.01 µM | 4.06 µM | 1.83 µM | 3.93 µM | 9.8 µM | 35.9 µM | 4.1 µM | 20.5 µM | 3.51 µM | 13.9 µM | 1.86 µM | 3.6 µM | 1.95 µM | 3.88 µM | 3.61 µM | 16.1 µM
COc1cc2ncnc(-n3ncc4cc(NC(=O)Nc5ccc(Cl)c(Cl)c5)ccc43)c2cc1OC | 1.7 µM | 3.44 µM | 1.92 µM | 4.19 µM | 2.08 µM | 4.57 µM | 1.96 µM | 4.03 µM | 4.44 µM | 85 µM | 2.61 µM | 8.87 µM | 0.612 µM | 2.47 µM | 1.5 µM | 3.06 µM | 1.84 µM | 4.29 µM | 2.05 µM | 4.66 µM
Cc1cc(C)c2c(n1)sc1c(N)ncnc12 | > 25 µM | > 25 µM | 1.43 µM | > 14 µM | > 25 µM | > 25 µM | > 24 µM | > 25 µM | > 25 µM | > 25 µM | > 25 µM | > 25 µM | > 24.1 µM | > 25 µM | > 25 µM | > 25 µM | > 25 µM | > 25 µM | 19.7 µM | > 25 µM
CNNC(=N\S(=O)(=O)c1cc(C)c(Cl)cc1SCc1ccccc1)/N=C/c1ccc([N+](=O)[O-])s1 | 47.9 µM | > 100 µM | 10.9 µM | > 83.8 µM | > 64.1 µM | > 100 µM | > 56.7 µM | > 100 µM | > 100 µM | > 100 µM | 1.29 µM | – | > 100 µM | > 100 µM | > 100 µM | > 100 µM | 18.5 µM | > 100 µM | > 100 µM | > 100 µM
CSc1ncc(Br)c(Sc2nc(N)nc3nc[nH]c23)n1 | 2.48 µM | 12.2 µM | 0.456 µM | 5.23 µM | 2.15 µM | 13.3 µM | 2.39 µM | 58.3 µM | 4.34 µM | 27.3 µM | 2.56 µM | 16.2 µM | 3.2 µM | 15 µM | 10.3 µM | 57 µM | 2.5 µM | > 100 µM | 12.9 µM | 44.2 µM
